Experimental data reported in patent US11319300B2, “Polyfluoro-substituted aromatic heterocyclic derivative, pharmaceutical composition containing same, and applications thereof” (ZHEJIANG UNIVERSITY, priority 2017, dated 2022).

Legend:
hERG potassium channel = target: T1, hERG potassium channel (Homo sapiens, UniProt Q12809); experiment: hERG potassium channel inhibition, manual whole-cell patch clamp in CHO hERG cells; assay type: cell-based; details: 3 μM, CHO hERG cells, patch clamp
T1 construct: host or cells: CHO
Experimental: A Sixty-Third Embodiment: hERG Potassium Channel Inhibition Activity Experiment
The cells used in this assay were CHO cell lines transfected with hERG cDNA and stably expressing the hERG channel (supplied by Sophion Bioscience, Denmark). The cells were cultured in medium containing the following components (all from Invitrogen): Ham's F12 medium, 10% (v/v) inactivated fetal bovine serum, 100 μg/ml hygromycin B, and 100 μg/ml Geneticin. 2.1.2CHO hERG cells were grown in a Petri dish containing the above culture solution, and cultured in an incubator containing 5% of CO2 at 37° C. 24 to 48 hours prior to electrophysiological experiments, CHO hERG cells were transferred to circular glass slides placed in petri dishes and grown under the same culture and culture conditions as above. The density of CHO hERG cells on each circular slide requires that most cells achieve independent, individual requirements.
2. Compound Treatment and Dilution
To obtain the IC50 of the compound, we selecte the following concentrations (30, 10, 3, 1, 0.3, and 0.1 μM) for testing. Prior to testing, the […] were first diluted to 10, 3, 1, 0.3, and 0.1 mM stock solution in gradual dilution with DMSO and then diluted to the final μM test concentration with extracellular fluid. The final concentration of DMSO in each of the other compound solutions was 0.1% except that the DMSO concentration in the 30 μM compound test solution was 0.3%. The positive control Cisapride (cishabili) was tested at a concentration of 0.1 μM. All compound solutions were sonicated and shaken for 5 to 10 minutes to ensure complete dissolution of the compound.
3. Electrophysiological Recording System and Data Analysis
This experiment uses a manual patch clamp system (HEKA EPC-10 signal amplifier and digital conversion system, purchased from HEKA Electronics, Germany) for the recording of whole cell currents. Round slide with CHO hERG cells on the surface was placed in an electrophysiology recording cell under an inverted microscope. The extracellular fluid was continuously perfused in the recording tank (about 1 ml per minute). The experimental procedure uses conventional whole-cell patch clamp current recording techniques. Unless otherwise stated, the experiments were carried out at regular room temperature (˜25° C.). The cells were clamped at a voltage of −80 mV. The cell clamp voltage was depolarized to +20 mV to activate the hERG potassium channel, and after 5 seconds it was clamped to −50 mV to eliminate inactivation and generate tail current. The tail current peak was used as the value of the hERG current magnitude. After the hERG potassium current recorded in the above step was stabilized under the continuous extracellular fluid perfusion in the recording tank, the drug to be tested can be superimposed and filled until the inhibitory effect of the drug on the hERG current reaches a steady state. Generally, the recent three consecutive current recording lines were recombined as a criterion for judging whether or not the state is stable. After reaching a steady state, extracellular fluid perfusion rinse until hERG current returns to the size before adding drug. One cell can test one or more drugs, or multiple concentrations of the same drug, but need to be flushed with extracellular fluid between different drugs. Cisapride (cisapride, purchased from Sigma) was used in the experiment as a positive control to ensure that the cells used were of normal quality. The test data was analysed by HEKA Patchmaster, Microsoft Excel and data analysis software provided by Graphpad Prism.

HCT-116 = experiment: Tumour cell proliferation inhibition, MTT assay, HCT-116; assay type: cell-based, human
Experimental: (§1) Compound AZD5363 (NCT02208375, NCT02208375, NCT01625286), which have entered the clinical phase II study, was used as a positive control, and the compound was assayed against common tumour cell lines (human ovarian cancer cell line OVCAR-8 and human colon cancer cell line HCT-116) by MTT assay, at the same time, the akt1 enzyme inhibitory activity (IC50) was evaluated using a commercial Akt1 kit.
1) The pharmacological test method for the tumour cell proliferation inhibiting activity of the compound of the present invention was as follows:
The first was the determination of in vitro tumour growth inhibitory activity and the preliminary structure-activity relationship study, and different solid tumour cell lines were used to determine the in vitro antitumour activity of the synthesized compounds.
Experimental materials: cell lines: human ovarian cancer cells (OVCAR8), colon adenocarcinoma cells (HCT-116),
Medium: OVCAR8: RPMI 1640+fetal calf serum
Drug preparation method: dissolving the drug in DMSO to make a 50 mM of stock solution, and diluting it to a certain ratio to obtain 5 different concentrations.
Tumour Cells being Cultured In Vitro:
The selected tumour cells were incubated in a, 5% of CO2 cell incubator at 37° C., and passaged until the cell density was 70 to 90% (the adherent cells were passaged with Duck's EDTA) and used for subsequent experiments.
The compound was dissolved in dimethyl sulfoxide (DMSO), diluted, and tumour cells were seeded into 4000 cells/200 μL/well in 96-well plates, and 1 μL of compound was added to each well to a final concentration of 50 μM, 10 μM, 2 μM, and 0.4 μM. 0.08 μM were incubated in a, 5% of CO2 cell incubator at 37° C. for 72 hours with DMSO (1%) as a blank control.
The calculation formula of the cell inhibition rate is: cell inhibition rate %=(control group OD value−drug group OD value)/control cell OD value×100%, and the half inhibition concentration (IC50) was determined by the Bliss method.

AKT1/PKBα = target: T2, AKT1/PKBα (Homo sapiens, UniProt P31749); experiment: Akt1 enzyme inhibitory activity, AKT1/PKBα KinEASE FP Fluorescein Green Assay; assay type: biochemical; details: fluorescence polarization kit assay; read-out: Akt1 IC50 (grade)
T2 construct: purchased
Experimental: as §1
2) Test method for the inhibitory activity of the compound of the present invention against Akt1 enzyme:
The AKT1/PKBα KinEASE™ FP Fluorescein Green Assay (Kinase Green Fluorescence Detection System) was used to detect the inhibitory activity of the compound on AKT1/PKBα.
Fluorescence polarization detection protein kinase B employs the principle of a competitive reaction: a fluorescently labeled phosphorylated tracer and an unlabeled phosphorylated product produced by the reaction of protein kinase B will compete with the anti-serine antibody for binding. In a reaction mixture […], when a part of the fluorescent tracer binds to the antibody, it causes a higher polarization value. However, in the reaction solution mixture containing the phosphorylated product, less tracer binds to the antibody (the fluorescent tracer was replaced from the antibody) and the emitted signal was depolarized. Therefore, the change in polarization was directly related to the activity of protein kinase B in the reaction.
The compound of the present invention and the positive control AZD5363 were dissolved in dimethyl sulfoxide (DMSO) and diluted to a concentration of 50 μM. At room temperature, 0.25 μl of the compound sample and the positive control at a concentration of 50 μM were taken and added to the 384-well plate, and three parallel wells were set for each sample, and then 10 μl of STK Substrate 3, Working Solution, 5 μl AKT1/PKBα Working Solution, 10 μl ATP Working Solution were added to each sample well plate with vibrating gently and shaking for a few minutes. The reaction starts after 10 μl of ATP Working Solution was added to the well, and the reaction was timed at room temperature for 1 hour. After one hour, 5 μl of STK Stop Mix and 5 μl of STK Antibody Mix were added to each well respectively to stop the reaction. After the addition completes, it was allowed to stand at room temperature for four hours, and the polarization value of the sample was detected by the fluorescence polarization of the microplate reader (it was effective to detect its signal within 24 hours), and the inhibition rate of the compound was calculated by the polarization value, and then IC50 was calculated.
Four sets of controls were set in the experiment, namely Buffer Control Wells, Tracer Control Wells, No Enzyme Wells, and a blank dimethyl sulfoxide control. The resulting data was used to calculate the inhibition rate.
The activity of the compound was divided into three grades according to the size of the IC50 of the Akt inhibitory activity: “+++”, 1 nM<IC50<10 nM; “++”, 10 nM<IC50<50 nM; “+”, 50 nM<IC50.

CEM-C1 = experiment: Tumour cell proliferation inhibition, MTT assay, CEM-C1; assay type: cell-based, human
786-O = experiment: Tumour cell proliferation inhibition, MTT assay, 786-O; assay type: cell-based, human
MCF-7 = experiment: Tumour cell proliferation inhibition, MTT assay, MCF-7; assay type: cell-based, human
HGC27 = experiment: Tumour cell proliferation inhibition, MTT assay, HGC27; assay type: cell-based, human

T2 sequence (P31749 whole entry): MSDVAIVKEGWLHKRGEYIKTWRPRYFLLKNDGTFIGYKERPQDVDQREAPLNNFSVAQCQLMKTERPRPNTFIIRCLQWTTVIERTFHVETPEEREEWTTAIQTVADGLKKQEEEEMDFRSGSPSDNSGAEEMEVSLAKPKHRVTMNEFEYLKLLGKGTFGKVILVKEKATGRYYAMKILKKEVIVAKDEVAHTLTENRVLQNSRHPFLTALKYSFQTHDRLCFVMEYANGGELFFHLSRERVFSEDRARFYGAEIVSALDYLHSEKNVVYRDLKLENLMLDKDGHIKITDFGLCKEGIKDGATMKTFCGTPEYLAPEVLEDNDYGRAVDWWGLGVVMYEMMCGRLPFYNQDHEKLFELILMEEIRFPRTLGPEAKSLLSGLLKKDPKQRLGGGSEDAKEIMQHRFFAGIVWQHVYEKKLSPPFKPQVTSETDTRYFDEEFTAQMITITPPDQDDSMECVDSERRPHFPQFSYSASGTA
T1 sequence (Q12809 whole entry): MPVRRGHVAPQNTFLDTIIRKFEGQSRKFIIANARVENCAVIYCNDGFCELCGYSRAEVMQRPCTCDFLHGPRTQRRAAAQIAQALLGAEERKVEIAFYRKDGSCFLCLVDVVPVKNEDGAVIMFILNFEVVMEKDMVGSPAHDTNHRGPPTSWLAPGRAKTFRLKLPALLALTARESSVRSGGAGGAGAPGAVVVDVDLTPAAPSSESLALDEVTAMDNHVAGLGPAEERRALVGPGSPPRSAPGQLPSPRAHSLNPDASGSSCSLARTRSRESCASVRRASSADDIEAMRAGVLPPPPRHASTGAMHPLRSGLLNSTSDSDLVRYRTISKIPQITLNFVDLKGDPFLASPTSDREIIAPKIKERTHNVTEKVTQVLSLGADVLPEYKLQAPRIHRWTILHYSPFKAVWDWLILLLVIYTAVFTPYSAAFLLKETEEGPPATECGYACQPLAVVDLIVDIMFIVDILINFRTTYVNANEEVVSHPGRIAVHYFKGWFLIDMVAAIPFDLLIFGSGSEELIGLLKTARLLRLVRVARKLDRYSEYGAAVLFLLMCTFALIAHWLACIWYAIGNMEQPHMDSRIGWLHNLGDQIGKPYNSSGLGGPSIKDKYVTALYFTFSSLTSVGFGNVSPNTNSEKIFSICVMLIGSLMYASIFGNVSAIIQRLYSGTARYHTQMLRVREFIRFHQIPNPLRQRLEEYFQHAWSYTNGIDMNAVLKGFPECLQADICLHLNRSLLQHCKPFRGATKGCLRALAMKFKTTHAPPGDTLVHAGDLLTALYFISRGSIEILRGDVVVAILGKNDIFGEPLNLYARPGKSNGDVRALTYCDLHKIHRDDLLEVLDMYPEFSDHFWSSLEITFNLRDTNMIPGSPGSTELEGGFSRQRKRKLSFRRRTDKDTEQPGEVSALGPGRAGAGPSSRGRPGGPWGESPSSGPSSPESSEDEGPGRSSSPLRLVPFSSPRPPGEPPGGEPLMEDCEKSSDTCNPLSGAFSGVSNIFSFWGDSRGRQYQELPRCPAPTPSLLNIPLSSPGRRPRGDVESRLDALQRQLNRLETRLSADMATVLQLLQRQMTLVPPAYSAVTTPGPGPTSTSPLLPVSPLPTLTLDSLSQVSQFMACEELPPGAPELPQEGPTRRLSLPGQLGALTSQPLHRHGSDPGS

IC50 (HCT-116; Homo sapiens, HCT-116, 72 h) [nM] | IC50 (CEM-C1; Homo sapiens, CEM/C1, 72 h) [nM] | IC50 (786-O; Homo sapiens, 786-0, 72 h) [nM] | IC50 (MCF-7; Homo sapiens, MCF7, 72 h) [nM] | IC50 (HGC27; Homo sapiens, HGC-27, 72 h) [nM] | Structure (SMILES) | hERG (Inhibition rate at 3 μM concentration) (hERG potassium channel) [%] | IC50 (AKT1/PKBα) [nM] | also measured
 |  |  |  |  | Cn1ncc(Cl)c1-c1cc(C(=O)N[C@H]2CNCC[C@@H]2c2ccc(F)c(F)c2)oc1Cl (racemic) [reference compound] | 62 |  | 
1520 | 120 | 1650 | 1850 | 20 | Cn1nccc1-c1ccc(C(=O)N[C@@H]2CNCC[C@H]2c2cc(F)c(F)c(F)c2)c(F)c1 [VII-8] | 11.8 | 1 to 10 | 
990 | 20 | 550 | 1180 | 30 | Cn1nccc1-c1cc(F)c(C(=O)N[C@@H]2CNCC[C@H]2c2ccc(F)c(F)c2)cc1F [VII-18] | 17.6 | 1 to 10 | 
 |  |  |  |  | Cn1nccc1-c1ccc(C(=O)N[C@@H]2CNCC[C@H]2c2ccc(F)c(F)c2)c(F)c1 [VII-31, D-malate] |  | 1 to 10 | IC50 (HCT-116; 72 hours, D-malate): 1520 nM; IC50 (CEM-C1; 72 hours, D-malate): 100 nM; IC50 (786-O; 72 hours, D-malate): 650 nM; IC50 (MCF-7; 72 hours, D-malate): 2960 nM; IC50 (HGC27; 72 hours, D-malate): 10 nM
 |  |  |  |  | Cn1nccc1-c1ccc(C(=O)N[C@@H]2CNCC[C@H]2c2ccc(F)c(F)c2)c(F)c1.O=C(O)C(O)C(O)C(=O)O [VII-33, L-tartrate] |  | 1 to 10 | IC50 (HCT-116; 72 hours, L-tartrate): 3100 nM; IC50 (CEM-C1; 72 hours, L-tartrate): 90 nM; IC50 (786-O; 72 hours, L-tartrate): 820 nM; IC50 (MCF-7; 72 hours, L-tartrate): 2250 nM; IC50 (HGC27; 72 hours, L-tartrate): 40 nM
